Literature values, collected in article PMC9915632 (International Journal of Molecular Sciences, 2023).
Non-standard residues stand in square brackets, D forms with d. Orn = NCCC[C@H](N)C(=O)O

Tests used:
[1] = ref [22], cited from earlier work
SARS-CoV-2 = conditions: in vitro; ref [16]; cited from earlier work
[2] = ref [15]; cited from earlier work

What does the source list for “For-Val-Gly-D-Leu-Ala-D-Val-Val-D-Val-Trp-D-Leu-Trp-D-Leu-Trp-D-Leu-Trp-Gly-ol [Gramicidin D, FDA-approved antimicrobial peptide drug, PubChem CID 45267103]”?
hemolysis ([1]; limits use to topical application): hemolytic side effect; tolerability ([1]; topical antibiotic): well-tolerated antibiotic

Which anti-SARS-CoV-2 activity (SARS-CoV-2) does the source give for “cyclo(L[dF]PV[Orn]L[dF]PV[Orn]) [Gramicidin S]” here?
Its anti-SARS-CoV-2 activity is “anti-SARS-CoV-2 activity in vitro”.

And the “antibacterial and fungicidal activity” value [2]?
Its value is “potent antibacterial and fungicidal activity”.
